Laboratory results: BindingDB's records for doi:10.1021/jm100886h (University of Copenhagen, 2010)

experiment: Antagonist activity at GluR1 expressed in Xenopus laevis oocytes assessed as inhibition of glutamate-induced current at -60mV holding potential by two-electrode voltage-clamp electrophysiology

**Q.** For `NCCCNCCCCNCCCNC(=O)[C@H](CC1CCCCC1)NC(=O)C1CCCCC1` [(S)-N-(1-(3-(4-(3-aminopropylamino)butylamino)propylamino)-3-cyclohexyl-1-oxopropan-2-yl)cyclohexanecarboxamide], which IC50 is on record?
**A.** The IC50 was 21 nM.

**Q.** With `NCCCNCCCCNCCCNC(=O)[C@H](CC1CCCCC1)NC(=O)CC12CC3CC(CC(C3)C1)C2` [(S)-2-(2-Adamantan-1-yl-acetylamino)-N-{3-[4-(3-amino-propylamino)-butylamino]-propyl}-3-cyclohexyl-propionamide] as the compound, how does the IC50 read?
**A.** The IC50 was 105 nM.

**Q.** For `NCCCNCCCCNCCCNC(=O)[C@H](CC1CCCCC1)NC(=O)c1ccc(-c2ccccc2)cc1` [(S)-N-(1-(3-(4-(3-aminopropylamino)butylamino)propylamino)-3-cyclohexyl-1-oxopropan-2-yl)biphenyl-4-carboxamide], which IC50 is on record?
**A.** The IC50 was 87 nM.

**Q.** For `NCCCNCCCCNCCCNC(=O)[C@H](CC1CCCCC1)NC(=O)Cc1cccc2ccccc12` [(S)-N-(3-(4-(3-aminopropylamino)butylamino)propyl)-3-cyclohexyl-2-(2-(naphthalen-1-yl)acetamido)propanamide], which IC50 is on record?
**A.** The IC50 was 41 nM.

**Q.** Which IC50 does the source give for `CCCC(=O)N[C@@H](CC1CCCCC1)C(=O)NCCCNCCCCNCCCN` [(S)-N-(1-(3-(4-(3-aminopropylamino)butylamino)propylamino)-3-cyclohexyl-1-oxopropan-2-yl)butyramide] here?
**A.** Its IC50 is 32 nM.
